This is an account of results in patent US20250263459A1, “STABILIZED PACAP PEPTIDE” (SENJU PHARMACEUTICAL CO., LTD., priority 2019, published 2025).

Non-standard residues stand in square brackets, D forms with d. Residues, ends and D or L forms follow the SMILES beside them. ξ: configuration not given here. ξAla(tetrazol-5-yl) = NC(Cc1nnn[nH]1)C(=O)O; Aib = CC(C)(N)C(=O)O

Data set [1] can be described thus: Stability test 1: survival rate of peptide in phosphate buffer (pH 7.0) after storage, HPLC. It is filed as physicochemical. The note with it: 100 μM peptide, 0.1% phosphate buffer pH 7.0, 40° C., 4 weeks (Table 4). Here is the method: The 1.0 mM peptide solutions were then diluted with phosphate buffer to 100 μM. […] The prepared peptide solutions were incubated for one month or 2 months in a 40° C. thermostatic bath to obtain stored samples.
Using the total weight of the aqueous peptide solution and storage vessel as the specimen weight, measurements were recorded as the specimen weights before storage and the specimen weights after storage under different storage conditions. The empty weight of the storage vessel was also measured, and the moisture permeability was determined by the following formula.
After stirring the standard sample and the stored samples with a vortex mixer, each peptide solution was transferred to an HPLC vial (Deactivated Qsert vial by Waters Co.). Reverse-phase HPLC (HPLC system: Prominence by Shimadzu Corp.) was conducted under the conditions shown in Table 3 below for analysis of the peptide solutions, and chromatograms were obtained.
The peak area value for the peptide in the chromatogram was calculated, and the survival rate (survival rate before correction for water) was calculated using formula (2). The survival rate after correction for water was also calculated from the survival rate before correction for water using formula (3) to take into account the permeability of the container.
Peptide solutions prepared by the same method as [Measuring sample preparation 1] for the peptides synthesized in Example 2 (peptides 13 to 16) were incubated for 2 weeks and 8 weeks in a thermostatic bath at 40° C. to obtain stored samples.
Peptide solutions prepared by the same method as [Measuring sample preparation 1] for the peptides synthesized in Example 2 (peptides 17 to 21) were incubated for 4 weeks in a thermostatic bath at 40° C. to obtain stored samples.
A peptide solution prepared by the same method as [Measuring sample preparation 1] for peptide 22 synthesized in Example 2 was incubated for 1 week and 4 weeks in a thermostatic bath at 40° C. to obtain stored samples.

Experiment in data set [2]: as above
In kind it is physicochemical. To be noted: 100 μM peptide, 0.1% phosphate buffer pH 7.0, head prints 80° C., 8 weeks (Table 4).

For data set [3] the following is noted: 100 μM peptide, Tris buffer pH 7.0, 60° C.
Description: The solution was filtered with a Chromatdisk (product of Merck Millipore, Millex-GV, 0.22 μm). The filtrate was diluted to 100 μM with Tris buffer (pH 7.0) and dispensed into a tube (Protein LoBind Tube by Eppendorf Co.). The prepared peptide solutions were incubated for 1 week or 2 weeks in a 60° C. thermostatic bath to obtain stored samples. A simultaneously prepared sample among the peptide solutions that was not stored was used as a standard sample (initial sample). The standard sample and the stored samples were stored at −30° C. until sample analysis.
• Column: XSelect CSH C18 by Waters Co., 5 μm, 4.6×250 mm • Guard column: XSelect CSH C18 by Waters Co., 5 μm, 4.6×20 mm Guard Cartridge • Detection wavelength: 220 nm • Mobile phase A: 0.1% formic acid aqueous solution • Mobile phase B: 0.1% acetonitrile formate solution • Measuring time: 20 minutes • Measuring sample injection rate: 50 μL • Flow rate: 1.0 mL/min • Column temperature: 40° C. • Sample cooler: 25° C. • Mobile phase delivery: The mixing ratio of mobile phase A and mobile phase B was varied as shown in Table 14 for linear concentration gradient control.

For `CC[C@H](C)[C@H](NC(=O)CNC(=O)C(Cc1nnn[nH]1)NC(=O)[C@H](CO)NC(=O)[C@@H](N)Cc1c[nH]cn1)C(=O)N[C@@H](Cc1ccccc1)C(=O)N[C@H](C(=O)NC(Cc1nnn[nH]1)C(=O)N[C@@H](CO)C(=O)N[C@@H](Cc1ccc(O)cc1)C(=O)N[C@@H](CO)C(=O)N[C@@H](CCCNC(=N)N)C(=O)N[C@@H](Cc1ccc(O)cc1)C(=O)N[C@@H](CCCNC(=N)N)C(=O)N[C@@H](CCCCN)C(=O)N[C@@H](CCC(N)=O)C(=O)N[C@@H](CCSC)C(=O)N[C@@H](C)C(=O)N[C@H](C(=O)N[C@@H](CCCCN)C(=O)N[C@@H](CCCCN)C(=O)N[C@@H](Cc1ccc(O)cc1)C(=O)N[C@@H](CC(C)C)C(=O)N[C@@H](C)C(=O)N[C@@H](C)C(=O)N[C@H](C(N)=O)C(C)C)C(C)C)[C@@H](C)O` (some centres unmarked) [Peptide 9, HSTzGI FTTzSY SRYRK QMAVK KYLAA V] (H-HS[ξAla(tetrazol-5-yl)]GIFT[ξAla(tetrazol-5-yl)]SYSRYRKQMAVKKYLAAV-NH2), the “survival rate after correction for water, 40° C. 4 week” value (from here on “survival rate … 40° C. 4 week”) in data set [1] is given as 92.4%. Also, the “survival rate after correction for water, 80° C. 8 week” value (from here on “survival rate … 80° C. 8 week”) in data set [2] is given as 83.3%.
On the same counts, the results for `CC[C@H](C)[C@H](NC(=O)CNC(=O)C(Cc1nnn[nH]1)NC(=O)[C@H](CO)NC(=O)[C@@H](N)Cc1c[nH]cn1)C(=O)N[C@@H](Cc1ccccc1)C(=O)N[C@@H](C)C(=O)NC(Cc1nnn[nH]1)C(=O)N[C@@H](CO)C(=O)N[C@@H](Cc1ccc(O)cc1)C(=O)NC(C)(C)C(=O)N[C@@H](CCCNC(=N)N)C(=O)N[C@@H](Cc1ccc(O)cc1)C(=O)N[C@@H](CCCNC(=N)N)C(=O)N[C@@H](CCCCN)C(=O)N[C@@H](CCC(N)=O)C(=O)N[C@@H](CCSC)C(=O)N[C@@H](C)C(=O)N[C@H](C(=O)N[C@@H](CCCCN)C(=O)N[C@@H](CCCCN)C(=O)N[C@@H](Cc1ccc(O)cc1)C(=O)N[C@@H](CC(C)C)C(=O)N[C@@H](C)C(=O)N[C@@H](C)C(=O)N[C@H](C(=O)N[C@@H](CC(C)C)C(N)=O)C(C)C)C(C)C` (some centres unmarked) [Peptide 5, HSTzGI FATzSY AiRYRK QMAVK KYLAA VL] (H-HS[ξAla(tetrazol-5-yl)]GIFA[ξAla(tetrazol-5-yl)]SY[Aib]RYRKQMAVKKYLAAVL-NH2) are 94.4% and 85.4%.
With “HSTzGIFTTzSYSRYRKQLAVKKYLAAVL [Reference Example 4]”, in data set [3], the “survival rate after correction for water, 60° C. 1 week preservation” value is recorded as 91.7% and the “survival rate after correction for water, 60° C. 2 weeks preservation” value worked out at 84.8%.
Regarding `CC[C@H](C)[C@H](NC(=O)CNC(=O)C(Cc1nnn[nH]1)NC(=O)[C@H](CO)NC(=O)[C@@H](N)Cc1c[nH]cn1)C(=O)N[C@@H](Cc1ccccc1)C(=O)N[C@@H](C)C(=O)NC(Cc1nnn[nH]1)C(=O)NC(C)(C)C(=O)N[C@@H](Cc1ccc(O)cc1)C(=O)NC(C)(C)C(=O)N[C@@H](CCCNC(=N)N)C(=O)N[C@@H](Cc1ccc(O)cc1)C(=O)N[C@@H](CCCNC(=N)N)C(=O)N[C@@H](CCCCN)C(=O)N[C@@H](CCC(N)=O)C(=O)N[C@@H](CCSC)C(=O)N[C@@H](C)C(=O)N[C@H](C(=O)N[C@@H](CCCCN)C(=O)N[C@@H](CCCCN)C(=O)N[C@@H](Cc1ccc(O)cc1)C(=O)N[C@@H](CC(C)C)C(=O)N[C@@H](C)C(=O)N[C@@H](C)C(=O)N[C@H](C(=O)N[C@@H](CC(C)C)C(N)=O)C(C)C)C(C)C` (some centres unmarked) [Peptide 6, HSTzGI FATzAiY AiRYRK QMAVK KYLAA VL] (H-HS[ξAla(tetrazol-5-yl)]GIFA[ξAla(tetrazol-5-yl)][Aib]Y[Aib]RYRKQMAVKKYLAAVL-NH2), the “survival rate … 40° C. 4 week” value in data set [1] was 94.0%. Further, in data set [2], the “survival rate … 80° C. 8 week” value is recorded as 87.5%.
Take “HSTzGIFTTzSYSRYRKQLAVKKYLAAVL [Reference Example 6] (HSXGIFTXSYSRYRKQLAVKKYLAAVL; N-acetyl; C-terminal amide; Tz residues; modified PACAP peptide; MOD_RES (1)..(1) …ON; MUTAGEN (3)..(3) Xaa is amino acid wherein carboxy group of asparatic acid is substituted with tetrazole; MUTAGEN (8)..(8) Xaa is amino acid wherein carboxy group of asparatic acid is substituted with tetrazole)”: in data set [3], the “survival rate after correction for water, 60° C. 1 week preservation” value was 98.4% and the “survival rate after correction for water, 60° C. 2 weeks preservation” value was 92.8%.
`CC[C@H](C)[C@H](NC(=O)CNC(=O)C(Cc1nnn[nH]1)NC(=O)[C@H](CO)NC(=O)[C@@H](N)Cc1c[nH]cn1)C(=O)N[C@@H](Cc1ccccc1)C(=O)N[C@@H](C)C(=O)NC(Cc1nnn[nH]1)C(=O)N[C@@H](C)C(=O)N[C@@H](Cc1ccc(O)cc1)C(=O)N[C@@H](CO)C(=O)N[C@@H](CCCNC(=N)N)C(=O)N[C@@H](Cc1ccc(O)cc1)C(=O)N[C@@H](CCCNC(=N)N)C(=O)N[C@@H](CCCCN)C(=O)N[C@@H](CCC(N)=O)C(=O)N[C@@H](CCSC)C(=O)N[C@@H](C)C(=O)N[C@H](C(=O)N[C@@H](CCCCN)C(=O)N[C@@H](CCCCN)C(=O)N[C@@H](Cc1ccc(O)cc1)C(=O)N[C@@H](CC(C)C)C(=O)N[C@@H](C)C(=O)N[C@@H](C)C(=O)N[C@H](C(=O)N[C@@H](CC(C)C)C(N)=O)C(C)C)C(C)C` (some centres unmarked) [Peptide 1, HSTzGI FATzAY SRYRK QMAVK KYLAA VL] (H-HS[ξAla(tetrazol-5-yl)]GIFA[ξAla(tetrazol-5-yl)]AYSRYRKQMAVKKYLAAVL-NH2): in data set [1], the “survival rate … 40° C. 4 week” value worked out at 91.1%. Moreover, the “survival rate … 80° C. 8 week” value in data set [2] came out at 81.5%.
For `CC[C@H](C)[C@H](NC(=O)CNC(=O)C(Cc1nnn[nH]1)NC(=O)[C@H](CO)NC(=O)[C@@H](N)Cc1c[nH]cn1)C(=O)N[C@@H](Cc1ccccc1)C(=O)N[C@H](C(=O)NC(Cc1nnn[nH]1)C(=O)N[C@@H](CO)C(=O)N[C@@H](Cc1ccc(O)cc1)C(=O)N[C@@H](CO)C(=O)N[C@@H](CCCNC(=N)N)C(=O)N[C@@H](Cc1ccc(O)cc1)C(=O)N[C@@H](CCCNC(=N)N)C(=O)N[C@@H](CCCCN)C(=O)N[C@@H](CCC(N)=O)C(=O)N[C@@H](CCSC)C(=O)N[C@@H](C)C(=O)N[C@H](C(=O)N[C@@H](CCCCN)C(=O)N[C@@H](CCCCN)C(=O)N[C@@H](Cc1ccc(O)cc1)C(=O)N[C@@H](CC(C)C)C(=O)N[C@@H](C)C(N)=O)C(C)C)[C@@H](C)O` (some centres unmarked) [Peptide 8, HSTzGI FTTzSY SRYRK QMAVK KYLA] (H-HS[ξAla(tetrazol-5-yl)]GIFT[ξAla(tetrazol-5-yl)]SYSRYRKQMAVKKYLA-NH2), in that order: 95.1% and 84.1%.
